For 17 compounds, IC50 results are on record in patent publication US20240148821A1, “PHARMACEUTICAL USE OF CYCLIC PEPTIDE COMPOUND” (CHUGAI SEIYAKU KABUSHIKI KAISHA, priority 2021, published 2024).

Bridge positions count the residues as written; N and C are the ends. Square brackets hold non-standard residues; d marks the D form. Peptide text beside a SMILES is read from it. * marks the point of attachment. hPhe(3-Cl-4-CF3) = N[C@@H](CCc1ccc(C(F)(F)F)c(Cl)c1)C(=O)O; hPhe(3-F,4-CF3) = N[C@@H](CCc1ccc(C(F)(F)F)c(F)c1)C(=O)O; NMePhe(4-CF3) = CN[C@@H](Cc1ccc(C(F)(F)F)cc1)C(=O)O; 3Oxa8azabicyclo(3.2.1)octane = C1CC2COCC1N2*; NEtPhe(4-Me) = CCN[C@@H](Cc1ccc(C)cc1)C(=O)O; NMePhe(4-Me) = CN[C@@H](Cc1ccc(C)cc1)C(=O)O; NMeAla(cPent) = CN[C@@H](CC1CCCC1)C(=O)O; NMeGly(cPent) = CN[C@H](C(=O)O)C1CCCC1; Gly(cPent) = N[C@H](C(=O)O)C1CCCC1; NMeCha = CN[C@@H](CC1CCCCC1)C(=O)O; NMehLeu = CN[C@@H](CCC(C)C)C(=O)O; NEtLeu = CCN[C@@H](CC(C)C)C(=O)O; NMeI = CC[C@H](C)[C@H](NC)C(=O)O; Piperidide(4-Me) = CC1CCN(*)CC1; NMeD = CN[C@@H](CC(=O)O)C(=O)O; NMeL = CN[C@@H](CC(C)C)C(=O)O; NMeV = CN[C@H](C(=O)O)C(C)C; d(β3hA) = C[C@@H](N)CC(=O)O; Azetidin(1-yl) = C1CN(*)C1; NMeS = CN[C@@H](CO)C(=O)O; Morpholide = C1CN(*)CCO1; NMeA = CN[C@@H](C)C(=O)O; Pyrrolidide = C1CCN(*)C1; Ac5c = NC1(C(=O)O)CCCC1; Aze = O=C(O)[C@@H]1CCN1; NEtG = CCNCC(=O)O; Sar = CNCC(=O)O; Propyl = CCC*

By IC50 is commonly meant the concentration that inhibits the measured activity by half.

In the experiment the target is protein-protein interaction between Kras and SOS1 (biotin-tagged human Kras loaded with GDP, His-tagged human SOS1) (Homo sapiens (Human), UniProt P01116, G12D). Nature of the experiment: Protein-protein interaction inhibition between Kras and SOS1 (KrasG12D-SOS PPI) using AlphaScreen.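 Further: kras produced in E. coli, Ni-coupled donor beads and streptavidin acceptor beads, excitation 680 nm with emission detected at 520–620 nm via singlet oxygen transfer.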 Format: biochemical. Particulars: AlphaScreen; biotin-tagged human Kras loaded with GDP, His-tagged human SOS1; read-out: KRAS G12D-SOS PPI IC50. A general note: In Alpha technology, singlet oxygen from a donor bead excites a nearby acceptor bead.
On to `CC[C@H](C)[C@@H]1NC(=O)[C@H](CC(C)C)N(CC)C(=O)C[C@@H](C(=O)N2CCOCC2)N(C)C(=O)[C@H](C2CCCC2)N(C)C(=O)C2(CCCC2)NC(=O)[C@@H]2CCCN2C(=O)[C@H](CCc2ccc(C(F)(F)F)c(Cl)c2)NC(=O)CN(C)C(=O)[C@H](C2CCCC2)N(C)C(=O)[C@@H]2CCN2C(=O)[C@H](C)NC1=O` [Compound 1140] ([NEtLeu]IA[Aze][NMeGly(cPent)][Sar][hPhe(3-Cl-4-CF3)]P[Ac5c][NMeGly(cPent)][NMeD]-Morpholide; lactam N-11), for which the IC50 came out at 2 nM.

As to `CC[C@H](C)[C@@H]1NC(=O)[C@H](CC(C)C)N(C)C(=O)C[C@@H](C(=O)N2CCOCC2)N(C)C(=O)[C@H](C2CCCC2)N(C)C(=O)C2(CCCC2)NC(=O)[C@@H]2CCCN2C(=O)[C@H](CCc2ccc(C(F)(F)F)c(Cl)c2)NC(=O)CN(CC)C(=O)[C@H](C2CCCC2)N(C)C(=O)[C@@H]2CCN2C(=O)[C@H](C)N(C)C1=O` [Compound 1142] ([NMeL]I[NMeA][Aze][NMeGly(cPent)][NEtG][hPhe(3-Cl-4-CF3)]P[Ac5c][NMeGly(cPent)][NMeD]-Morpholide; lactam N-11), the half-maximal inhibitory concentration (IC50) is 6.5 nM.

Regarding `CC[C@H](C)[C@@H]1NC(=O)[C@H](CC2CCCC2)N(C)C(=O)C[C@@H](C(=O)N2CCOCC2)N(C)C(=O)[C@H](C2CCCC2)N(C)C(=O)C2(CCCC2)NC(=O)[C@@H]2CCCN2C(=O)[C@H](CCc2ccc(C(F)(F)F)c(Cl)c2)NC(=O)CN(C)C(=O)[C@H](C2CCCC2)N(C)C(=O)[C@@H]2CCN2C(=O)[C@H](C)NC1=O` [Compound 1145] ([NMeAla(cPent)]IA[Aze][NMeGly(cPent)][Sar][hPhe(3-Cl-4-CF3)]P[Ac5c][NMeGly(cPent)][NMeD]-Morpholide; lactam N-11), the IC50 was 1.1 nM.

Take `CC[C@H](C)[C@@H]1NC(=O)[C@H](CC(C)C)N(CC)C(=O)C[C@@H](C(=O)N2CCCC2)N(C)C(=O)[C@H]([C@@H](C)CC)N(C)C(=O)C2(CCCC2)NC(=O)[C@@H]2CCCN2C(=O)[C@H](CCc2ccc(C(F)(F)F)c(Cl)c2)NC(=O)CN(C)C(=O)[C@H](Cc2ccc(C(F)(F)F)cc2)N(C)C(=O)[C@@H]2CCN2C(=O)[C@H](C)NC1=O` [Compound 1146] ([NEtLeu]IA[Aze][NMePhe(4-CF3)][Sar][hPhe(3-Cl-4-CF3)]P[Ac5c][NMeI][NMeD]-Pyrrolidide; lactam N-11): the half-inhibitory concentration (IC50) is 1.9 nM.

`CCCOC[C@H]1C(=O)N(C)CC(=O)N[C@@H](CCc2ccc(C(F)(F)F)c(Cl)c2)C(=O)N2CCC[C@H]2C(=O)NC2(CCCC2)C(=O)N(C)[C@@H](C2CCCC2)C(=O)N(C)[C@H](C(=O)N2C3CCC2COC3)CC(=O)N(C)[C@@H](CCC(C)C)C(=O)N[C@@H]([C@@H](C)CC)C(=O)N(C)[C@@H](C)C(=O)N2CC[C@H]2C(=O)N1C` [Compound 1154] ([NMehLeu]I[NMeA][Aze][NMeS](Propyl)[Sar][hPhe(3-Cl-4-CF3)]P[Ac5c][NMeGly(cPent)][NMeD]-{3Oxa8azabicyclo(3.2.1)octane}; lactam N-11): the IC50 was 2.4 nM.

As to `CC[C@H](C)[C@@H]1NC(=O)[C@H](CC(C)C)N(C)C(=O)C[C@@H](C(=O)N2CCCC2)N(C)C(=O)[C@H]([C@@H](C)CC)N(C)C(=O)C2(CCCC2)NC(=O)[C@@H]2CCCN2C(=O)[C@H](CCc2ccc(C(F)(F)F)c(Cl)c2)NC(=O)CN(CC)C(=O)[C@H](Cc2ccc(C(F)(F)F)cc2)N(C)C(=O)[C@@H]2CCN2C(=O)[C@H](C)N(C)C1=O` [Compound 1159] ([NMeL]I[NMeA][Aze][NMePhe(4-CF3)][NEtG][hPhe(3-Cl-4-CF3)]P[Ac5c][NMeI][NMeD]-Pyrrolidide; lactam N-11), the IC50 came out at 2.8 nM.

For `CC[C@H](C)[C@@H]1NC(=O)[C@H](CC(C)C)N(C)C(=O)C[C@@H](C(=O)N2CCC(C)CC2)NC(=O)[C@H](C(C)C)N(C)C(=O)C2(CCCC2)NC(=O)[C@@H]2CCCN2C(=O)[C@H](CCc2ccc(C(F)(F)F)c(Cl)c2)NC(=O)CN(C)C(=O)[C@H](CC2CCCCC2)N(C)C(=O)[C@@H]2CCN2C(=O)[C@H](C)N(C)C1=O` [Compound 1161] ([NMeL]I[NMeA][Aze][NMeCha][Sar][hPhe(3-Cl-4-CF3)]P[Ac5c][NMeV]D-{Piperidide(4-Me)}; lactam N-11), the IC50 amounted to 60 nM.

Consider `CC[C@H](C)[C@@H]1NC(=O)[C@H](CC(C)C)N(C)C(=O)C[C@@H](C(=O)N(C)C)N(C)C(=O)[C@H](C2CCCC2)N(C)C(=O)C2(CCCC2)NC(=O)[C@@H]2CCCN2C(=O)[C@H](CCc2ccc(C(F)(F)F)c(F)c2)NC(=O)CN(C)C(=O)[C@H](CC2CCCCC2)N(C)C(=O)[C@@H]2CCN2C(=O)[C@H](C)NC1=O` [Compound 1164] ([NMeL]IA[Aze][NMeCha][Sar][hPhe(3-F,4-CF3)]P[Ac5c][NMeGly(cPent)][NMeD]-NMe2; lactam N-11), for which the IC50 worked out at 1.4 nM.

`CCCOC[C@H]1C(=O)N(C)CC(=O)N[C@@H](CCc2ccc(C(F)(F)F)c(Cl)c2)C(=O)N2CCC[C@H]2C(=O)NC2(CCCC2)C(=O)N(C)[C@@H](C2CCCC2)C(=O)N(C)[C@H](C(=O)N2C3CCC2COC3)CC(=O)N(CC)[C@@H](CC(C)C)C(=O)N[C@@H]([C@@H](C)CC)C(=O)N[C@@H](C)C(=O)N2CC[C@H]2C(=O)N1C` [Compound 1167] ([NEtLeu]IA[Aze][NMeS](Propyl)[Sar][hPhe(3-Cl-4-CF3)]P[Ac5c][NMeGly(cPent)][NMeD]-{3Oxa8azabicyclo(3.2.1)octane}; lactam N-11): the IC50 was found to be 8.7 nM.

As for `CC[C@H](C)[C@@H]1NC(=O)[C@H](CCC(C)C)N(C)C(=O)C[C@@H](C(=O)N2CCOCC2)N(C)C(=O)[C@H](C2CCCC2)N(C)C(=O)C2(CCCC2)NC(=O)[C@@H]2CCCN2C(=O)[C@H](CCc2ccc(C(F)(F)F)c(Cl)c2)NC(=O)CN(C)C(=O)[C@H](CC2CCCCC2)N(C)C(=O)[C@@H]2CCN2C(=O)[C@H](C)NC1=O` [Compound 1171] ([NMehLeu]IA[Aze][NMeCha][Sar][hPhe(3-Cl-4-CF3)]P[Ac5c][NMeGly(cPent)][NMeD]-Morpholide; lactam N-11), the IC50 worked out at 0.99 nM.

As for `CC[C@H](C)[C@@H]1NC(=O)[C@H](CC2CCCC2)N(C)C(=O)C[C@@H](C(=O)N2CCOCC2)N(C)C(=O)[C@H](C2CCCC2)N(C)C(=O)C2(CCCC2)NC(=O)[C@@H]2CCCN2C(=O)[C@H](CCc2ccc(C(F)(F)F)c(Cl)c2)NC(=O)CN(C)C(=O)[C@H](CC2CCCCC2)N(C)C(=O)[C@@H]2CCN2C(=O)[C@H](C)NC1=O` [Compound 1176] ([NMeAla(cPent)]IA[Aze][NMeCha][Sar][hPhe(3-Cl-4-CF3)]P[Ac5c][NMeGly(cPent)][NMeD]-Morpholide; lactam N-11), the IC50 came to 0.8 nM.

On to `CCCOC[C@H]1C(=O)N(C)CC(=O)N[C@@H](CCc2ccc(C(F)(F)F)c(Cl)c2)C(=O)N2CCC[C@H]2C(=O)NC2(CCCC2)C(=O)N(C)[C@@H](C2CCCC2)C(=O)N(C)[C@H](C(=O)N2C3CCC2COC3)CC(=O)N(CC)[C@@H](CC(C)C)C(=O)N[C@@H]([C@@H](C)CC)C(=O)N(C)[C@@H](C)C(=O)N2CC[C@H]2C(=O)N1C` [Compound 1193] ([NEtLeu]I[NMeA][Aze][NMeS](Propyl)[Sar][hPhe(3-Cl-4-CF3)]P[Ac5c][NMeGly(cPent)][NMeD]-{3Oxa8azabicyclo(3.2.1)octane}; lactam N-11), for which the half-inhibitory concentration (IC50) amounted to 2.1 nM.

As to `CC[C@H](C)[C@@H]1NC(=O)[C@H](CC(C)C)N(CC)C(=O)C[C@@H](C(=O)N2CCC2)N(C)C(=O)[C@H](C2CCCC2)N(C)C(=O)C2(CCCC2)NC(=O)[C@@H]2CCCN2C(=O)[C@H](CCc2ccc(C(F)(F)F)c(Cl)c2)NC(=O)CN(C)C(=O)[C@H](CC2CCCCC2)N(C)C(=O)[C@@H]2CCN2C(=O)[C@H](C)N(C)C1=O` [Compound 1198] ([NEtLeu]I[NMeA][Aze][NMeCha][Sar][hPhe(3-Cl-4-CF3)]P[Ac5c][NMeGly(cPent)][NMeD]-{Azetidin(1-yl)}; lactam N-11), the IC50 stood at 1.2 nM.

For `CC[C@H](C)[C@@H]1NC(=O)[C@H](CC(C)C)N(C)C(=O)C[C@@H](C)NC(=O)[C@H](C2CCCC2)NC(=O)C2(CCCC2)NC(=O)[C@@H]2CCCN2C(=O)[C@H](CCc2ccc(C(F)(F)F)c(Cl)c2)NC(=O)CN(C)C(=O)[C@H](Cc2ccc(C)cc2)N(C)C(=O)[C@@H]2CCN2C(=O)[C@H](C)N(C)C1=O` [Compound 1213] (cyclo([Ac5c][Gly(cPent)][d(β3hA)][NMeL]I[NMeA][Aze][NMePhe(4-Me)][Sar][hPhe(3-Cl-4-CF3)]P)), the IC50 was 17 nM.

Take `CC[C@H](C)[C@@H]1NC(=O)[C@H](CCC(C)C)N(C)C(=O)C[C@@H](C(=O)N2CCOCC2)N(C)C(=O)[C@H](C2CCCC2)N(C)C(=O)C2(CCCC2)NC(=O)[C@@H]2CCCN2C(=O)[C@H](CCc2ccc(C(F)(F)F)c(Cl)c2)NC(=O)CN(C)C(=O)[C@H](C2CCCC2)N(C)C(=O)[C@@H]2CCN2C(=O)[C@H](C)NC1=O` [Compound 1223] ([NMehLeu]IA[Aze][NMeGly(cPent)][Sar][hPhe(3-Cl-4-CF3)]P[Ac5c][NMeGly(cPent)][NMeD]-Morpholide; lactam N-11): the half-maximal inhibitory concentration (IC50) worked out at 1.2 nM.

For `CC[C@H](C)[C@@H]1NC(=O)[C@H](CC(C)C)N(CC)C(=O)C[C@@H](C(=O)N2CCOCC2)N(C)C(=O)[C@H]([C@@H](C)CC)N(C)C(=O)C2(CCCC2)NC(=O)[C@@H]2CCCN2C(=O)[C@H](CCc2ccc(C(F)(F)F)c(Cl)c2)NC(=O)CN(C)C(=O)[C@H](Cc2ccc(C(F)(F)F)cc2)N(C)C(=O)[C@@H]2CCN2C(=O)[C@H](C)NC1=O` [Compound 1233] ([NEtLeu]IA[Aze][NMePhe(4-CF3)][Sar][hPhe(3-Cl-4-CF3)]P[Ac5c][NMeI][NMeD]-Morpholide; lactam N-11), the IC50 is 2.5 nM.

`CC[C@H](C)[C@@H]1NC(=O)[C@H](CC(C)C)N(C)C(=O)C[C@@H](C(=O)N2C3CCC2COC3)N(C)C(=O)[C@H](C2CCCC2)N(C)C(=O)C2(CCCC2)NC(=O)[C@@H]2CCCN2C(=O)[C@H](CCc2ccc(C(F)(F)F)c(Cl)c2)NC(=O)CN(C)C(=O)[C@H](Cc2ccc(C)cc2)N(CC)C(=O)[C@@H]2CCN2C(=O)[C@H](C)N(C)C1=O` [Compound 1236] ([NMeL]I[NMeA][Aze][NEtPhe(4-Me)][Sar][hPhe(3-Cl-4-CF3)]P[Ac5c][NMeGly(cPent)][NMeD]-{3Oxa8azabicyclo(3.2.1)octane}; lactam N-11): the half-inhibitory concentration (IC50) came to 7.3 nM.
